Reference: patent US11236085B2, “PD-1/PD-L1 inhibitors” (Gilead Sciences, Inc., priority 2018, dated 2022)
One block for each compound: values may come before it.

Legend:
PD-1/PD-L1 [1] = target: T1, PD-1/PD-L1 (Homo sapiens, UniProt Q9NZQ7); experiment: PD-1/PD-L1 NFAT reporter assay (co-culture of aAPC-PD-L1 CHO cells and Jurkat cells overexpressing PD-1, NFAT luciferase); type: cell-based; design: expressed in transfected cells; host or cells: CHO cells (aAPC-PD-L1) co-cultured with Jurkat cells overexpressing PD-1; conditions: co-culture incubated for 6 hrs at 37° C.; luciferase under NFAT control
Protocol: PD-1/PD-L1 NFAT Reporter Assay
Compounds were tested in a functional co-culture reporter assay in which TCR-mediated NFAT activity is inhibited by the engagement of PD-1 with PD-L1. […] CHO cells expressing surface-bound anti-CD3 antibodies and PD-L1 (artificial antigen presenting cells, aAPC-PD-L1) were first seeded overnight. Jurkat cells overexpressing PD-1 and expressing a luciferase construct under NFAT control are diluted in RPMI assay medium (RPMI 1640 with 2% FBS), mixed with compounds, and immediately seeded on the monolayer of aAPC-PD-L1. The co-culture is then incubated for 6 hrs at 37° C. Luciferase activity is assessed by adding the ONE-Glo reagent and measuring luminescence with a plate reader. EC50 values are calculated from the fit of the dose-response curves to a four-parameter equation (Table 4).
Target sequence in this assay (Q9NZQ7 19-290): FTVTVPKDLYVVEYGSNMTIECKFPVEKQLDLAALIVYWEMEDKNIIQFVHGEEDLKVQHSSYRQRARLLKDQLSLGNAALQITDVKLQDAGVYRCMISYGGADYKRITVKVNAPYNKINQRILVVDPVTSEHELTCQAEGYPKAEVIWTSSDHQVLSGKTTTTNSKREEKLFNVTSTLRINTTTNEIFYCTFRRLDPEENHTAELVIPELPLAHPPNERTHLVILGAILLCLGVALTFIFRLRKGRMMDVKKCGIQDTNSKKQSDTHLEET

PD-1/PD-L1 [2] = target: T1, PD-1/PD-L1; experiment: PD-1/PD-L1 biochemical protein-protein interaction assay (ALPHA); type: binding; conditions: 0.3 nM His tagged PD-L1, 2.5 nM biotinylated Fc-PD-1; 60 minutes at 25° C.; read-out: IC50 PD-L1-PD1
Protocol: PD-1/PD-L1 & CTLA/CD80 Biochemical Protein-Protein Interaction Assay
Compounds were tested in biochemical protein-protein interaction assays to determine if they can specifically block the interaction between the extracellular domains of PD-1/PD-L1 or CTLA/CD80. Binding of the protein pairs is measured using a bead based Amplified Luminescent Proximity Homogeneous Assay (ALPHA) platform. Binding of each protein pair results in proximity of the donor and acceptor beads which leads to an increase in ALPHA signal. Disruption of the protein-protein interaction with a test compound results in a decrease in ALPHA signal. Assays are performed in 25 mM Hepes (pH 7.4), 150 mM NaCl, 3.4 mM EDTA, 0.005% Tween 20, and 0.01% BSA. Final protein concentration in the assays were 0.3 nM (His tagged PD-L1), 2.5 nM (biotinylated Fc-PD-1), 1 nM (His tagged CTLA4) and 1 nM (biotinylated CD80). After an assay reaction time of 60 minutes at 25° C., binding was measured with addition of 20 μg/mL ALPHA assay acceptor beads (anti-His coated) and 20 µg/mL ALPHA assay donor beads (streptavidin coated). IC50 values were calculated from the fit of the dose-response curves to a four-parameter equation. Representative data are shown below in Table 3.
Target sequence in this assay (Q9NZQ7 19-238 limits assumed): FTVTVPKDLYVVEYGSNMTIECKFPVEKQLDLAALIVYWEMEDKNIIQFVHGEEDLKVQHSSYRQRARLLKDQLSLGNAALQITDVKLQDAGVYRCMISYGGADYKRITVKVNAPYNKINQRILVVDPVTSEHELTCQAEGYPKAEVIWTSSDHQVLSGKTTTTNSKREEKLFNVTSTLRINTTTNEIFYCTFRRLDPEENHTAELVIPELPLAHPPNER

PD-L1 = target: T2, PD-L1 (Homo sapiens, UniProt Q9NZQ7); experiment: PD-L1/PD-L1 dimerization biochemical protein-protein interaction assay (ALPHA); conditions: 0.5 nM His tagged PD-L1 and 0.5 nM FLAG tagged PD-L1; compound induced dimerization; read-out: AC50 PDL1 Dimer 1 nM
T2 construct: determine if they can specifically dimerize the extracellular domains of PD-L1
T2 sequence (Q9NZQ7 19-238 limits assumed): as above
T2 sequence (Q9NZQ7 19-238 limits assumed): as above
Protocol: PD-L1/PD-L1 Dimerization Biochemical Protein-Protein Interaction Assay
Compounds were tested in biochemical protein-protein interaction assays to determine if they can specifically dimerize the extracellular domains of PD-L1. Dimerization of the proteins (His-tagged PD-L1 and FLAG-tagged PD-L1) is measured using a bead based Amplified Luminescent Proximity Homogeneous Assay (ALPHA) platform. […] Assays are performed in 25 mM Hepes (pH 7.4), 150 mM NaCl, 3.4 mM EDTA, 0.005% Tween 20, and 0.01% BSA. Final protein concentration in the assays were 0.5 nM (His tagged PD-L1) and 0.5 nM (FLAG tagged PD-L1). After an assay reaction time of 2 hours at 25° C., 20 μg/mL (final assay concentration) ALPHA assay acceptor beads (anti-His coated) were added and incubated for 60 minutes at 25° C. Binding was measured following a final 60 minute incubation with 40 μg/mL (final assay concentration) ALPHA assay donor beads (anti-FLAG coated). AC50 values were calculated from the fit of the dose-response curves to a four-parameter equation (Table 4).

SMILES: COc1nc(O[C@H]2CCc3c(-c4cccc(-c5ccc6c(n5)CCNC6)c4Cl)cccc32)c(C(F)(F)F)cc1CN1CC[C@@H](C(=O)O)C1 [Compound 1, (R)-1-((6-(((S)-4-(2-chloro-3-(5,6,7,8-tetrahydro-1,6-naphthyridin-2-yl)phenyl)-2,3-dihydro-1H-inden-1-yl)oxy)-2-methoxy-5-(trifluoromethyl)pyridin-3-yl)methyl)pyrrolidine-3-carboxylic acid]
- EC50 (PD-1/PD-L1 [1]): 1260 nM
- IC50 (PD-1/PD-L1 [2]): 0.064 nM
- AC50 (PD-L1): 135 nM

SMILES: COc1nc(O[C@H]2CCc3c(-c4cccc(-c5nc6c(s5)CCNC6)c4Cl)cccc32)c(C(F)(F)F)cc1CN1CC[C@@H](C(=O)O)C1 [Compound 2, (R)-1-((6-(((S)-4-(2-chloro-3-(4,5,6,7-tetrahydrothiazolo[4,5-c]pyridin-2-yl)phenyl)-2,3-dihydro-1H-inden-1-yl)oxy)-2-methoxy-5-(trifluoromethyl)pyridin-3-yl)methyl)pyrrolidine-3-carboxylic acid]
- EC50 (PD-1/PD-L1 [1]): 3250 nM
- IC50 (PD-1/PD-L1 [2]): 0.064 nM
- AC50 (PD-L1): 23 nM

SMILES: Cc1c(COc2cc(OCc3cncc(C#N)c3)c(CN[C@@](C)(CO)C(=O)O)cc2Cl)cccc1-c1cccc(-c2ccc3c(c2)CNCC3)c1C [Compound 5]
- EC50 (PD-1/PD-L1 [1]): 134 nM
- IC50 (PD-1/PD-L1 [2]): 0.136 nM
- AC50 (PD-L1): 57 nM

SMILES: COc1nc(-c2cccc(-c3cccc(-c4ccc5c(c4)OCCNC5)c3Cl)c2Cl)ccc1CNC[C@@H](O)CC(=O)O [Compound 6]
- EC50 (PD-1/PD-L1 [1]): 170 nM
- IC50 (PD-1/PD-L1 [2]): 0.427 nM
- AC50 (PD-L1): 301 nM

SMILES: Cc1c(COc2cc(OCc3cc(Cl)cc(C#N)c3)c(CN[C@@](C)(CO)C(=O)O)cc2Cl)cccc1-c1cccc(-c2ccc3c(c2)CNCC3)c1C [Compound 7]
- EC50 (PD-1/PD-L1 [1]): 142 nM
- IC50 (PD-1/PD-L1 [2]): 0.955 nM
- AC50 (PD-L1): 75 nM

SMILES: Cc1c(COc2cc(OCCCC#N)c(CN[C@@](C)(CO)C(=O)O)cc2Cl)cccc1-c1cccc(-c2ccc3c(c2)CNCC3)c1C [Compound 9]
- EC50 (PD-1/PD-L1 [1]): 173 nM
- IC50 (PD-1/PD-L1 [2]): 0.126 nM
- AC50 (PD-L1): 63.8 nM

SMILES: Cc1c(COc2cc(OCc3cncc(C#N)c3)c(CNC[C@@H](O)CC(=O)O)cc2Cl)cccc1-c1cccc(-c2ccc3c(c2)NC(=O)CNC3)c1C [Compound 11]
- EC50 (PD-1/PD-L1 [1]): 178 nM
- IC50 (PD-1/PD-L1 [2]): 0.686 nM
- AC50 (PD-L1): 599 nM

SMILES: CNC(=O)NC1CNCc2cc(-c3cccc(-c4cccc(-c5ccc(CNC[C@@H]6CCC(=O)N6)c(OC)n5)c4Cl)c3Cl)ccc21 (stereo partly drawn) [Compound 12]
- EC50 (PD-1/PD-L1 [1]): 165 nM
- IC50 (PD-1/PD-L1 [2]): 0.17 nM
- AC50 (PD-L1): 55.3 nM

SMILES: Cc1c(COc2cc(OCc3cncc(C#N)c3)c(CNC[C@@H](O)CC(=O)O)cc2Cl)cccc1-c1cccc(-c2ccc3c(c2)CNCC3NC(=O)NCC#N)c1C (stereo partly drawn) [Compound 17]
- EC50 (PD-1/PD-L1 [1]): 128 nM
- IC50 (PD-1/PD-L1 [2]): 0.174 nM
- AC50 (PD-L1): 31.6 nM

SMILES: C[C@](CO)(NCc1cc(Br)c(OCc2cccc(-c3cccc(-c4ccc5c(c4)CNCC5)c3Cl)c2Cl)nc1OCc1cncc(C#N)c1)C(=O)O [Compound 21]
- EC50 (PD-1/PD-L1 [1]): 166 nM
- IC50 (PD-1/PD-L1 [2]): 0.23 nM
- AC50 (PD-L1): 28.3 nM

SMILES: COc1nc(-c2cccc(-c3cccc(-c4cc5c(cn4)CNC5)c3Cl)c2Cl)ccc1CNC[C@@H]1CCC(=O)N1 [Compound 23]
- EC50 (PD-1/PD-L1 [1]): 202 nM
- IC50 (PD-1/PD-L1 [2]): 0.318 nM
- AC50 (PD-L1): 272 nM

SMILES: Cc1c(COc2cc(OCc3cncc(C#N)c3)c(CN[C@@](C)(CO)C(=O)O)cc2Cl)cccc1-c1cccc(-c2ccc3c(c2)C2CCC(C3)N2)c1C (stereo partly drawn) [Compound 24]
- EC50 (PD-1/PD-L1 [1]): 184 nM
- IC50 (PD-1/PD-L1 [2]): 0.086 nM
- AC50 (PD-L1): 41.3 nM

SMILES: CC(=O)NCC1Cc2ccc(-c3cccc(-c4cccc(COc5cc(OCc6cncc(C#N)c6)c(CN[C@@](C)(CO)C(=O)O)cc5Cl)c4C)c3C)cc2CN1 (stereo partly drawn) [Compound 26]
- EC50 (PD-1/PD-L1 [1]): 174 nM
- IC50 (PD-1/PD-L1 [2]): 0.064 nM
- AC50 (PD-L1): 48.9 nM

Compounds with a lower EC50 (PD-1/PD-L1 [1]), results first:

- EC50 (PD-1/PD-L1 [1]): 123 nM
- IC50 (PD-1/PD-L1 [2]): 0.064 nM
- AC50 (PD-L1): 76.9 nM
SMILES: Cc1c(COc2cc(OCc3cncc(C#N)c3)c(CN[C@@](C)(CO)C(=O)O)cc2Cl)cccc1-c1cccc(-c2ccc3c(c2)CNCC3O)c1C (stereo partly drawn) [Compound 3]

- EC50 (PD-1/PD-L1 [1]): 90 nM
- IC50 (PD-1/PD-L1 [2]): 0.064 nM
- AC50 (PD-L1): 86.5 nM
SMILES: Cc1c(COc2cc(OCc3cncc(C#N)c3)c(CN[C@@](C)(CO)C(=O)O)cc2Cl)cccc1-c1cccc(-c2ccc3c(c2)NCCNC3)c1C [Compound 4]

- EC50 (PD-1/PD-L1 [1]): 90 nM
- IC50 (PD-1/PD-L1 [2]): 0.293 nM
- AC50 (PD-L1): 42.9 nM
SMILES: Cc1c(COc2cc(OCc3cc(C#N)cc(C#N)c3)c(CN[C@@](C)(CO)C(=O)O)cc2Cl)cccc1-c1cccc(-c2ccc3c(c2)CNCC3)c1C [Compound 8]

- EC50 (PD-1/PD-L1 [1]): 103 nM
- IC50 (PD-1/PD-L1 [2]): 0.187 nM
- AC50 (PD-L1): 249 nM
SMILES: Cc1c(COc2cc(OCc3cncc(C#N)c3)c(CN[C@@](C)(CO)C(=O)O)cc2Cl)cccc1-c1cccc(-c2ccc3c(c2)NC(=O)CNC3)c1C [Compound 10]

- EC50 (PD-1/PD-L1 [1]): 90 nM
- IC50 (PD-1/PD-L1 [2]): 0.147 nM
- AC50 (PD-L1): 26.9 nM
SMILES: Cc1c(COc2cc(OCc3cncc(C#N)c3)c(CNC[C@@H](O)CC(=O)O)cc2Cl)cccc1-c1cccc(-c2ccc3c(c2)CNCC3NC(=O)NC2CC2)c1C (stereo partly drawn) [Compound 13]

- EC50 (PD-1/PD-L1 [1]): 69 nM
- IC50 (PD-1/PD-L1 [2]): 0.064 nM
- AC50 (PD-L1): 10.7 nM
SMILES: Cc1c(COc2cc(OCc3cncc(C#N)c3)c(CN[C@@](C)(CO)C(=O)O)cc2Cl)cccc1-c1cccc(-c2ccc3c(c2)CNCC3NC(=O)NC2CC2)c1C (stereo partly drawn) [Compound 14]

- EC50 (PD-1/PD-L1 [1]): 59 nM
- IC50 (PD-1/PD-L1 [2]): 0.064 nM
- AC50 (PD-L1): 7.47 nM
SMILES: CNC(=O)N[C@@H]1CNCc2cc(-c3cccc(-c4cccc(COc5cc(OCc6cncc(C#N)c6)c(CN[C@@](C)(CO)C(=O)O)cc5Cl)c4C)c3C)ccc21 [Compound 15]

- EC50 (PD-1/PD-L1 [1]): 102 nM
- IC50 (PD-1/PD-L1 [2]): 0.09 nM
- AC50 (PD-L1): 30.9 nM
SMILES: Cc1c(COc2cc(OCc3cncc(C#N)c3)c(CN[C@@](C)(CO)C(=O)O)cc2Cl)cccc1-c1cccc(-c2ccc3c(c2)CNCC3NC(=O)NCC#N)c1C (stereo partly drawn) [Compound 16]

- EC50 (PD-1/PD-L1 [1]): 73 nM
- IC50 (PD-1/PD-L1 [2]): 0.158 nM
- AC50 (PD-L1): 54.9 nM
SMILES: Cc1c(COc2cc(OCc3cncc(C#N)c3)c(CN[C@@](C)(CO)C(=O)O)cc2Cl)cccc1-c1cccc(-c2ccc3c(c2)CNCC3N)c1C (stereo partly drawn) [Compound 18]

- EC50 (PD-1/PD-L1 [1]): 95 nM
- IC50 (PD-1/PD-L1 [2]): 0.064 nM
- AC50 (PD-L1): 20.8 nM
SMILES: CNC(=O)NC1CNCc2cc(-c3cccc(-c4cccc(COc5cc(OCc6cncc(C#N)c6)c(CNC[C@@H](O)CC(=O)O)cc5Cl)c4C)c3C)ccc21 (stereo partly drawn) [Compound 20]

- EC50 (PD-1/PD-L1 [1]): 87 nM
- IC50 (PD-1/PD-L1 [2]): 0.151 nM
- AC50 (PD-L1): 37.7 nM
SMILES: C[C@@](CO)(NCc1cc(Br)c(OCc2cccc(-c3cccc(-c4ccc5c(c4)CNCC5)c3Cl)c2Cl)nc1OCc1cncc(C#N)c1)C(=O)O [Compound 22]

- EC50 (PD-1/PD-L1 [1]): 108 nM
- IC50 (PD-1/PD-L1 [2]): 0.064 nM
- AC50 (PD-L1): 53.5 nM
SMILES: Cc1c(COc2nc(OCc3cncc(C#N)c3)c(CN[C@@](C)(CO)C(=O)O)cc2Cl)cccc1-c1cccc(-c2ccc3c(c2)CNC(COC(=O)NCCO)C3)c1C (stereo partly drawn) [Compound 25]
